From patent US20220105170A1 (priority 2019, published 2022) come the findings set out here.

In this assay the test system is peripheral blood lymphocytes collected from swine exposed to ASFV. Format: cell-based.

2126 (TAIQKNYFRF) [compound 2126]: the “Number of Spots” value is 13.

In the case of 2127 (AIQKNYFRF) [compound 2127], the “Number of Spots” value is given as 15.

As to 2134 (KNYFRFFKK) [compound 2134], the “Number of Spots” value is on record as 16.

For the substance 2137 (KNYFRFFKKL) [compound 2137], the “Number of Spots” value is reported as 12.

In the case of 2139 (NYFRFFKKLL) [compound 2139], the “Number of Spots” value is listed as 19.

Turning to 2140 (YFRFFKKLL) [compound 2140], the “Number of Spots” value amounted to 16.

Regarding 2141 (RFFKKLLTHF) [compound 2141], the “Number of Spots” value is 12.

For the substance 2142 (RFFKKLLTH) [compound 2142], the “Number of Spots” value came out at 12.

Take 2146 (KLLTHFNIYR) [compound 2146]: the “Number of Spots” value is 16.

2159 (RIHTRFGQYY) [compound 2159]: the “Number of Spots” value turned out to be 15.

Regarding 2166 (KIDDFIRLY) [compound 2166], the “Number of Spots” value was 13.

Turning to 2171 (FIRLYPHIFY) [compound 2171], the “Number of Spots” value is 18.

As to 2175 (RLYPHIFYR) [compound 2175], the “Number of Spots” value is listed as 16.

For 2181 (YPHIFYRPLY) [compound 2181], the “Number of Spots” value is 12.

2183 (PHIFYRPLYR) [compound 2183]: the “Number of Spots” value is recorded as 15.

On to 2185 (HIFYRPLYRY) [compound 2185], for which the “Number of Spots” value came to 15.

2193 (ALNRHITTY) [compound 2193]: the “Number of Spots” value was found to be 12.

In the case of 2194 (RSCDYAPGFY) [compound 2194], the “Number of Spots” value was found to be 12.

Regarding 2197 (KVRNKAIELY) [compound 2197], the “Number of Spots” value is given as 17.

Turning to 2205 (SVEELLSAV) [compound 2205], the “Number of Spots” value is listed as 13.

For 2211 (ASFKEGLSL) [compound 2211], the “Number of Spots” value is 12.

With 2213 (KTSSNIILY) [compound 2213], the “Number of Spots” value came out at 12.

Take 2222 (ISFSEMLTRYW) [compound 2222]: the “Number of Spots” value is on record as 12.

Take 2223 (SFSEMLTRY) [compound 2223]: the “Number of Spots” value is recorded as 12.

Regarding 2225 (SFSEMLTRYW) [compound 2225], the “Number of Spots” value stood at 12.

For the substance 2241 (YNLTEAIQYF) [compound 2241], the “Number of Spots” value is on record as 14.

2242 (YNLTEAIQY) [compound 2242]: the “Number of Spots” value amounted to 12.

In the case of 2251 (AIQYFYQRY) [compound 2251], the “Number of Spots” value was 12.

On to 2252 (AIQYFYQRYR) [compound 2252], for which the “Number of Spots” value came to 13.

For 2265 (RYRHFKDWRLI) [compound 2265], the “Number of Spots” value stood at 13.

As for 2266 (YRHFKDWRL) [compound 2266], the “Number of Spots” value worked out at 14.

For the substance VLIEFLTGFF [SEQ ID NO. 554], the “Number of Spots” value turned out to be 16.
